Assay results from patent US10040838B2, “CRHR2 peptide agonists and uses thereof” (JANSSEN PHARMACEUTICA NV, priority 2008, dated 2018).
Where “and” joins values, the source holds several entries; their conditions need not be identical. Equal entries are not always repeated. Where two headings read alike, the source gives them in different places. No end group written: not given here.

Legend:
[1] = target: T1, CRHR1 (Homo sapiens, UniProt P34998); assay: cAMP assay in h-CRHR1 transfected SK-N-MC cells; format: cell-based; parameters: expressed in transfected cells; settings: for Experimental nH: Table 11, Hill slope
T1 sequence (P34998 24-415): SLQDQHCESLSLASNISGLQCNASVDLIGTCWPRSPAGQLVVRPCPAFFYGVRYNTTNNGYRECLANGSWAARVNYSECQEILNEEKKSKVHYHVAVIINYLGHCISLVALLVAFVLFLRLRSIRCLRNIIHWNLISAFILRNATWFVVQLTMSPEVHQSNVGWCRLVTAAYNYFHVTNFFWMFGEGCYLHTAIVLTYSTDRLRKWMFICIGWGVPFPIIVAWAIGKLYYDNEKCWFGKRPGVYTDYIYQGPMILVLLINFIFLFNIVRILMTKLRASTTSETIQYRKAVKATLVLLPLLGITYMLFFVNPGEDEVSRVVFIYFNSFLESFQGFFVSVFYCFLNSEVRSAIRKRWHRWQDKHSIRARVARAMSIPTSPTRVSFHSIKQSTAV
Experimental: Human CRHR1 (accession number X72304) or CRHR2 (accession number U34587) were cloned into pcDNA3.1/Zeo expression vector and stably transfected into SK-N-MC cells by electroporation. Cells were maintained in MEM w/Earl's Salt with 10% FBS, 50 I.U. penicillin, 50 μg/ml streptomycin, 2 mM L-glutamine, 1 mM sodium pyruvate and 0.1 mM nonessential amino acids, 600 μg/ml G418. Cells were grown at 37° C. in 5% CO2.
Cells were plated in 96-well tissue culture dishes (Biocoat from BD Biosciences) overnight at 50,000 cell/well. Cells were washed with PBS then resuspended in DMEM F-12 without phenol red, containing 10 μM isobutylmethylxanthine (IBMX). Cells were incubated with the peptides at concentrations ranging from 1 pM to 10 μM for 60 min at 37° Celsius. […] Forskolin (10 μM), a direct stimulant of adenylate cyclase, was used as positive control. The assays were stopped by the addition of 0.5 M HCl and mixing by orbital rotation for 2 h at 4° Celsius.
Transfected SK-N-MC cells were plated in 96-well Biocoat tissue culture dishes (BD Biosciences, San Jose, Calif., U.S.A) overnight at 50,000 cell/well. […]
Individual agonist concentration-response curve data were fitted to the Hill equation, see formula below, using GraphPad Prism (Graphpad Software, La Jolla, Calif., U.S.A.), to provide estimates of agonist concentration needed to generate one-half maximal response (A50), and the maximal asymptote (α) and Hill slope (nH) parameters. In this equation, [A] is the agonist concentration and E is the measured effect:
For display purposes the mean fitted parameter estimates were used to generate a single E/[A] curve shown superimposed on the mean experimental data. Potency estimates for agonists, pA50, are expressed as the negative logarithm of the midpoint of each curve and listed with their standard error of measurement (SEM).
Human and rat peptides (see Table 10) were used on the stimulation of h-CRHR1 or h-CRHR2 transfected SK-N-MC cells in the cAMP flash plate assay. […] Curves were calculated using non-linear regression sigmoidal concentration-response analysis calculation in GraphPad Prism.

[2] = target: T1, CRHR1; assay: Radioligand binding CRHR1 assay, [125I]-(Tyr0)-sauvagine; parameters: expressed in transfected cells; host or cells: cell membranes; settings: Table 15; slope of competition curve
Experimental: The solution was then homogenized with a Polytron tissue grinder at a setting of 10 and 7×3 s (Brinkmann Instruments, Westbury, N.Y.). The homogenate was centrifuged at 4° Celsius at 800×g for 5 min with the pellet being discarded. […] All binding assays were conducted in 96-well Multiscreen GF/B filter plates (Millipore, Billericay, Mass., U.S.A.) that were pre-soaked in assay buffer with 0.3% PEI for 1 hour. […] The bound radioactivity was separated by filtration using a Multiscreen Resist manifold (Millipore Corp., Billerica, Mass., U.S.A). The filters were washed three times with ice-cold PBS at pH 7.5 and radioactivity retained on the filters was quantified by its liquid scintillation measured by a TopCount counter (Packard BioScience, Boston, Mass., U.S.A). All experiments were performed in triplicate.

[3] = target: T2, h-CRHR2b (Homo sapiens, UniProt Q13324); settings: h-CRHR2b transfected HEK-293 cells, approximated from concentration response curves, Hsu et al. 2001; cited from earlier work
T2 sequence (Q13324 1-438 isoform Q13324-2): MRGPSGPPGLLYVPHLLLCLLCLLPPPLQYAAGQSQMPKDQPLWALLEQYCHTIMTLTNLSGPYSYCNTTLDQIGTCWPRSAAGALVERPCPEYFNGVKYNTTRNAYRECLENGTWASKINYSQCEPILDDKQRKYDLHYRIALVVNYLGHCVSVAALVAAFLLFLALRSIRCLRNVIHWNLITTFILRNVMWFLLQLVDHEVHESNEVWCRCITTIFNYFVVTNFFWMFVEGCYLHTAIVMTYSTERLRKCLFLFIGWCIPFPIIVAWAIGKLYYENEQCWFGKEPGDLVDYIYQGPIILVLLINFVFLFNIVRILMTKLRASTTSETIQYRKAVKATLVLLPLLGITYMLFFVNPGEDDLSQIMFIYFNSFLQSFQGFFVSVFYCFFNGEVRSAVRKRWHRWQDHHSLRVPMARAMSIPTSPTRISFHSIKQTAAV

[4] = tested on: isolated rat aortic rings; assay: Vascular smooth muscle relaxation, isolated rat aortic rings pre-contracted with phenylephrine
Text: The ability of h-SCP (SEQ ID NO:1) to relax vascular smooth muscle was examined in isolated, rat aortic rings pre-contracted with phenylephrine (PE) (see FIG. 6). […] The responses caused by h-SCP (SEQ ID NO:1) were inhibited by anti-sauvagine-30 (SEQ ID NO:118).

[5] = tested on: Langendorff perfused rabbit heart; assay: Retrograde-perfused Langendorff rabbit heart assay; settings: bolus into the perfusion block
Experimental: The effect of h-SCP (SEQ ID NO:1) on heart rate (HR), left ventricular (LV) contraction, and vascular tone was assessed in a retrograde-perfused Langendorff rabbit heart assay.

CC[C@H](C)[C@H](NC(=O)[C@H](CO)NC(=O)[C@H](CC(C)C)NC(=O)[C@@H]1CCCN1C(=O)[C@@H]1CCCN1C(=O)[C@H](CC(=O)O)NC(=O)[C@@H](N)CC(=O)O)C(=O)N[C@@H](CC(=O)O)C(=O)N[C@@H](CC(C)C)C(=O)N[C@H](C(=O)N[C@@H](Cc1ccccc1)C(=O)N[C@@H](Cc1c[nH]cn1)C(=O)N[C@@H](CC(C)C)C(=O)N[C@@H](CC(C)C)C(=O)N[C@@H](CCCNC(=N)N)C(=O)N[C@H](C(=O)N[C@@H](CC(C)C)C(=O)N[C@@H](CC(C)C)C(=O)N[C@@H](CCC(=O)O)C(=O)N[C@@H](CC(C)C)C(=O)N[C@@H](C)C(=O)N[C@@H](CCCNC(=N)N)C(=O)N[C@H](C(=O)N[C@@H](CCC(N)=O)C(=O)N[C@@H](CO)C(=O)N[C@@H](CCC(N)=O)C(=O)N[C@@H](CCCNC(=N)N)C(=O)N[C@@H](CCC(=O)O)C(=O)N[C@@H](CCCNC(=N)N)C(=O)N[C@@H](C)C(=O)N[C@@H](CCC(=O)O)C(=O)N[C@@H](CCC(N)=O)C(=O)N[C@@H](CC(N)=O)C(=O)N[C@@H](CCCNC(=N)N)C(=O)N[C@H](C(=O)N[C@H](C(=O)N[C@@H](Cc1ccccc1)C(=O)N[C@@H](CC(=O)O)C(=O)N[C@@H](CO)C(=O)N[C@H](C(N)=O)C(C)C)[C@@H](C)CC)[C@@H](C)CC)[C@@H](C)O)[C@@H](C)O)[C@@H](C)O [SEQ ID NO: 114, DDPPLSIDLTFHLLRTLLELARTQSQRERAEQNRIIFDSV-NH2]
Experimental nH [1]: 1.15 | Experimental αmax ([1]; Table 11, maximal asymptote): 99.61 | CRHR1 nH [2]: 0.91 ± 0.27

HPGSRIVLSLDVPIGLLQILLEQARARAAREQATTNARILARV-NH2 [SEQ ID NO: 117, HPGSRIVLSLDVPIGLLQILLEQARAPAAREQATTNARILARV-NH2, reference compound]
Published pA50 [3]: ~9^4 | Experimental nH ([1]; listed as h-SRP): 1.61 and 1.33 and 1.26

TKFTLSLDVPTNIMNLLFNIAKAKNLRAQAAANAHLMAQI-NH2 [SEQ ID NO: 1, TKFTLSLDVPTNIMNLLFNIAKAKNLRAQAAANAHLMAQI-NH2, reference compound]
pA50 relaxation ([4]; rat aortic rings pre-contracted with phenylephrine): 6.05±0.12 | fold less potent than h-UCN2 ([4]; relaxation of rat aortic rings): 10 fold | EC50 ([5]; read-out: concentration for 50% response, decrease in coronary perfusion pressure (CPP)): 46 nM | EC50 ([5]; read-out: concentration for 50% response, increase in heart rate): 52 nM | EC50 ([5]; read-out: concentration for 50% response, increase in left ventricular developed pressure (dP/dtmax)): 9.9 nM | Published pA50 [3]: ~9^4 | CRHR1 nH [2]: 1.16 ± 0.65
